Measured values: the supplement of paper PMC10307832

Tests used:
Test in all cases: relative viability (nuclei count vs DMSO), 5 days (fraction); higher = more cells survive
[1] = compound: C1CC(C2=C(C1)C3=C(N2)C=CC(=C3)Cl)C(=O)N [Selisistat] + CS(=O)(=O)CCNCc1ccc(-c2ccc3ncnc(Nc4ccc(OCc5cccc(F)c5)c(Cl)c4)c3c2)o1 [Lapatinib] (partner 2 µM)
Method in brief: (§1)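 After 5 days of treatment, lung cancer cells in 1536-well plates were fixed and stained in a single step (final 0.05% Triton X-100, 1% formaldehyde, 1 ug/ml Hoechst) and their nuclei counted on 4× images. Treatment had been applied by pin tool the day after seeding as one drug alone or as a fixed anchor-drug dose with five library-drug doses (not always all listed) in √10 steps. Relative viability is the nuclei count of treated wells divided by that of vehicle wells, and values are medians of duplicate plates.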

[2] = compound: c1ccc2c(CCNc3ccc(Nc4ccncc4)cc3)c[nH]c2c1 [Serdemetan] + CCNC(=O)c1noc(-c2cc(C(C)C)c(O)cc2O)c1-c1ccc(CN2CCOCC2)cc1 [Luminespib] (partner 0.01 µM)
Method in brief: as §1

[3] = compound: c1ccc2c(CCNc3ccc(Nc4ccncc4)cc3)c[nH]c2c1 [Serdemetan] + CC(=O)c1c(C)c2cnc(Nc3ccc(N4CCNCC4)cn3)nc2n(C2CCCC2)c1=O [Palbociclib] (partner 0.5 µM)
Method in brief: as §1

[4] = compound: c1ccc2c(CCNc3ccc(Nc4ccncc4)cc3)c[nH]c2c1 [Serdemetan] + N=C(N)NC(=N)NCCc1ccccc1 [Phenformin] (partner 250 µM)
Method in brief: as §1

| Cell Line | relative viability ([1]; first compound 0.4 µM) | relative viability ([1]; first compound 1.265 µM) | relative viability ([1]; first compound 4 µM) | relative viability ([1]; first compound 12.65 µM) | relative viability ([1]; first compound 40 µM) | relative viability ([2]; first compound 0.04 µM) | relative viability ([2]; first compound 0.1265 µM) | relative viability ([2]; first compound 0.4 µM) | relative viability ([2]; first compound 1.265 µM) | relative viability ([2]; first compound 4 µM) | relative viability ([3]; first compound 0.04 µM) | relative viability ([3]; first compound 0.1265 µM) | relative viability ([3]; first compound 0.4 µM) | relative viability ([3]; first compound 1.265 µM) | relative viability ([3]; first compound 4 µM) | relative viability ([4]; first compound 0.04 µM) | relative viability ([4]; first compound 0.1265 µM) | relative viability ([4]; first compound 0.4 µM) | relative viability ([4]; first compound 1.265 µM) | relative viability ([4]; first compound 4 µM) |
| --- | --- | --- | --- | --- | --- | --- | --- | --- | --- | --- | --- | --- | --- | --- | --- | --- | --- | --- | --- | --- |
| COR-L23 | 0.969 | 1.03 | 0.959 | 0.935 | 0.799 | 0.724 | 0.639 | 0.644 | 0.631 | 0.432 | 0.235 | 0.3 | 0.349 | 0.213 | 0.236 | 0.448 | 0.468 | 0.427 | 0.414 | 0.42 |
| NCI-H727 | 0.626 | 0.841 | – | – | 0.725 | 0.319 | 0.481 | 0.288 | 0.265 | 0.385 | 0.351 | 0.638 | 0.604 | 0.722 | 0.644 | 0.592 | 0.558 | 0.642 | 0.288 | 0.418 |
| NCI-H2087 | 1 | 1.13 | 0.653 | 0.946 | 1.03 | 0.176 | 0.147 | 0.168 | 0.184 | 0.123 | 0.28 | 0.255 | 0.236 | 0.147 | 0.215 | 0.446 | 0.47 | 0.455 | 0.267 | 0.253 |
| BEN | 0.677 | 0.683 | 0.471 | 0.603 | 0.548 | 0.24 | 0.2 | 0.461 | – | 0.329 | 0.513 | 0.494 | 0.504 | 0.365 | 0.449 | 0.283 | 0.252 | 0.271 | – | 0.267 |
| EKVX | 0.213 | 0.243 | 0.185 | 0.252 | 0.215 | 0.947 | 0.925 | 0.861 | – | 0.585 | 0.456 | 0.374 | – | – | 0.282 | 0.225 | 0.243 | 0.14 | – | 0.241 |
| LXF-289 | 0.913 | 0.949 | 0.926 | 0.864 | 0.921 | 0.636 | 0.706 | 0.625 | 0.517 | 0.401 | 0.544 | 0.542 | 0.527 | 0.524 | 0.381 | 0.483 | 0.522 | 0.5 | 0.457 | 0.517 |
| ABC-1 | 1.03 | 1.12 | 1.19 | 0.924 | 1.24 | 0.581 | 0.648 | 0.515 | 0.567 | 0.516 | 0.553 | 0.586 | 0.694 | 0.611 | 0.459 | 0.229 | 0.235 | 0.197 | 0.204 | 0.224 |
| NCI-H650 | 1.09 | – | 0.916 | 0.941 | 1.11 | 0.659 | 0.875 | 0.732 | 0.576 | 0.505 | 0.332 | 0.365 | 0.344 | 0.282 | 0.287 | 0.417 | 0.44 | 0.506 | 0.403 | 0.481 |
| NCI-H1650 | 0.918 | 0.74 | 0.579 | 0.685 | 0.693 | 0.212 | 0.213 | 0.205 | 0.177 | 0.184 | 0.318 | 0.275 | 0.282 | 0.257 | 0.262 | 0.424 | 0.462 | 0.268 | 0.391 | 0.285 |
| NCI-H2085 | 0.818 | 0.797 | 0.725 | 0.753 | 0.724 | 0.454 | 0.394 | 0.457 | 0.382 | 0.354 | 0.46 | 0.457 | 0.466 | 0.382 | 0.342 | 0.778 | 0.762 | 0.634 | 0.571 | 0.424 |
| NCI-H1793 | 0.793 | 0.636 | – | 0.816 | 0.816 | 0.17 | 0.186 | 0.343 | 0.169 | 0.165 | 0.355 | 0.325 | 0.308 | 0.242 | 0.271 | 0.378 | 0.293 | 0.247 | 0.236 | 0.26 |
| LC-2-ad | 1.01 | 0.968 | 0.803 | 0.833 | 1.04 | 0.951 | 0.944 | 0.969 | 0.898 | 0.899 | 0.438 | 0.449 | 0.507 | 0.471 | 0.44 | 0.559 | 0.589 | 0.556 | 0.496 | 0.579 |
| COR-L 105 | 0.298 | 0.338 | 0.371 | 0.378 | 0.31 | 1.3 | 0.911 | 0.64 | 0.693 | 0.588 | 0.4 | 0.403 | 0.359 | 0.297 | 0.411 | 0.507 | 0.418 | 0.443 | 0.492 | 0.431 |
| NCI-H1355 | 0.923 | 1 | – | 1.02 | 1.04 | 0.671 | 0.667 | 0.609 | 0.353 | 0.449 | 0.381 | 0.381 | 0.366 | 0.371 | 0.366 | 0.447 | 0.444 | 0.466 | 0.332 | 0.432 |
| H3255 | 0.225 | 0.263 | 0.123 | 0.245 | 0.271 | 0.913 | 1.02 | 0.783 | 0.994 | 0.669 | 0.327 | 0.333 | 0.346 | 0.286 | 0.342 | 0.348 | 0.387 | 0.358 | 0.351 | 0.397 |
| NCI-H1993 | 0.683 | 0.751 | – | 0.913 | 0.806 | 0.981 | 0.778 | 0.811 | 0.768 | 0.758 | 0.64 | 0.603 | 0.736 | 0.699 | 0.569 | 0.516 | 0.539 | 0.596 | 0.454 | 0.532 |
| NCI-H1734 | 1.03 | 1.04 | 1.17 | 1.02 | 1.16 | 0.198 | 0.24 | 0.196 | 0.15 | 0.186 | 0.296 | 0.23 | 0.229 | 0.166 | 0.212 | 0.303 | 0.318 | 0.338 | 0.156 | 0.181 |
| HOP-62 | 0.974 | 1.03 | 0.96 | 0.884 | 1.14 | 0.758 | 0.915 | 0.848 | 0.666 | 0.596 | 0.466 | 0.469 | 0.545 | 0.3 | 0.209 | 0.718 | 0.63 | 0.721 | 0.548 | 0.583 |
| LOU-NH91 | 0.753 | 0.741 | 0.741 | 0.762 | 0.758 | 0.282 | 0.334 | 0.347 | 0.296 | 0.299 | 0.518 | 0.515 | – | – | 0.563 | 0.699 | 0.733 | 0.478 | 0.669 | 0.665 |
| NCI-H2228 | 0.99 | 1.2 | 1.31 | 0.868 | 1.07 | 0.119 | 0.201 | 0.159 | 0.16 | 0.145 | 0.644 | 0.61 | 0.511 | 0.115 | 0.233 | 0.38 | 0.269 | 0.362 | 0.238 | 0.21 |
| PC-14 | 0.371 | 0.356 | 0.218 | 0.294 | 0.342 | 0.129 | 0.163 | – | 0.149 | 0.107 | 0.546 | 0.546 | – | 0.467 | 0.346 | 0.59 | 0.537 | – | 0.531 | 0.549 |
| NCI-H1437 | 0.801 | 0.758 | 0.341 | 0.71 | 0.776 | 1.11 | 1 | 1.06 | 1.02 | 0.788 | 0.289 | 0.32 | 0.334 | 0.359 | 0.315 | 0.314 | 0.32 | 0.315 | 0.298 | 0.37 |
| NCI-H460 | 0.909 | 0.952 | – | 0.903 | 0.911 | 0.0305 | 0.0294 | 0.0326 | 0.0303 | 0.0264 | 0.166 | 0.175 | 0.0992 | 0.0798 | 0.0544 | 0.47 | 0.505 | 0.446 | 0.145 | 0.09 |
| NCI-H1666 | 0.751 | 0.574 | 0.437 | 0.589 | 0.472 | 1.01 | 0.992 | 1.05 | 0.869 | 0.811 | 0.645 | 0.655 | 0.63 | – | 0.66 | 0.55 | 0.557 | 0.535 | 0.529 | 0.412 |
| NCI-H1651 | 0.785 | 0.769 | 0.749 | 0.789 | 0.939 | 0.714 | 0.591 | 0.457 | 0.473 | 0.273 | 0.51 | 0.499 | 0.523 | 0.358 | 0.29 | 0.283 | 0.319 | 0.224 | 0.205 | 0.213 |
| NCI-H1755 | 1.12 | 1.15 | 1.01 | 1.01 | 1.13 | 0.417 | 0.43 | 0.568 | 0.39 | 0.343 | 0.45 | 0.42 | 0.445 | 0.344 | 0.39 | 0.625 | 0.623 | 0.564 | 0.469 | 0.52 |
| NCI-H661 | 0.515 | 0.469 | 0.502 | 0.396 | 0.535 | 0.91 | 0.943 | 0.95 | 0.799 | 0.854 | 0.387 | 0.416 | 0.411 | 0.382 | 0.393 | 0.283 | 0.303 | 0.254 | 0.246 | 0.281 |
